# In a melting point compilation (Tetko et al.; mined from patent text by program, amines drawn as free bases though some values may be those of a salt):
row,SMILES,melting point
1,COc1cc2c(-c3ccnc(Cl)c3)c(CO)c(CO)cc2cc1OC(C)C,129 to 131 °C
2,CS(=O)(=O)c1cc(Cl)cc(O)c1O,142 to 145 °C
3,O=C(Oc1cc(=O)[nH]cc1Cl)c1ccccc1,196 to 197 °C
4,CCCCCCCCCCCCCCCCCCOc1cccc(N(CC(=O)O)CC(=O)O)c1,130 to 133 °C
5,Cc1ccccc1N1CCc2c(N(C)C)nc3c(C)cccc3c21,120 to 121 °C
6,C[C@@H]1Cc2ccsc2[C@H](C)N1CCCCNC(=O)c1ccc(NS(C)(=O)=O)cc1 (relative stereo),112 to 116 °C
7,NC(=O)c1cccc(-c2cc(OC(=O)NC3CCCCC3)ccc2O)c1,128 to 130 °C
8,CC1=CC(c2cccs2)(C(C)C(=O)O)Nc2ccccc21 (stereo unspecified),228 to 229 °C
9,CCOC(=O)CC(=O)N1NCCCC1C(=O)OC(C)(C)C (stereo unspecified),86 to 87 °C
10,O=C(NC1CCN(CCCOc2ccccc2C(=O)Nc2nnn[nH]2)CC1)c1ccccc1,259 to 260 °C
11,CCOC(=O)CN1C(=O)C(=Cc2ccccc2)SC1=S,122 to 125 °C
12,N#Cc1cc(SC(F)(F)F)[nH]c1-c1ccc(Cl)cc1,203 to 205 °C
13,CN1CCC2(CC1)c1ccccc1Cc1ccccc12,132 to 134 °C
14,CCCSc1nc2ccc(Br)cc2c(=O)n1CCC,65 to 67 °C
15,N#Cc1c(N2CCCCC2)cc(-c2ccc(-n3cccc3)cc2)c2c1Cc1ccccc1-2,224 to 226 °C
16,Cc1c(SCCCSc2nnnn2CC(=O)O)ccnc1CSc1ccncc1,185 to 187 °C
17,CCOC(=O)c1cnn2c1nc(Cl)c1cnc3c(cnn3CC)c12,170 to 172 °C
18,Cc1ccc(-c2ccc(S(N)(=O)=O)cc2)n1-c1ccc(F)cc1,147 to 148 °C
19,COc1nc(C)nc(NC(=O)NS(=O)(=O)c2sccc2C2OCCO2)n1,164 to 166 °C
20,CCN1CCC2(c3cccc(O)c3)Cc3[nH]c(C(=O)N4CCCC4)c(C)c3CC2C1 (stereo unspecified),224 to 226 °C
21,CCOC(=O)Cc1nn(Cc2nc(-c3ccccc3C(F)(F)F)no2)c(=O)c2ccccc12,111 to 115 °C
22,CCOC(=O)CC[C@H](NC(=O)c1csc(CCCc2cc3c(=O)[nH]c(N)nc3[nH]2)c1)C(=O)OCC,81 to 82 °C
23,OC1CSC(Oc2cccnc2-c2ccc(F)cc2)C(O)C1O (stereo unspecified),110 °C
24,Cc1cc(S(=O)(=O)c2ccc(O)cc2)ccc1C1CCN(C)C1 (stereo unspecified),186 to 188 °C
25,CC(C)N1CCN(C(=O)c2ccc(-c3ccc(=O)n(C)n3)cc2)CC1,131 to 132 °C
26,O=C1CCCN1c1ccc(N2C[C@H](CO)OC2=O)cc1,148 °C

row,SMILES,melting point
1,CCOC(=O)C(C)(Cc1cccc(OCCN2CCCCC2)c1)S(=O)(=O)c1ccc(OC)cc1 (stereo unspecified),112 °C
2,CCN(O)C(=O)CCc1ccc2c(c1)C(=O)c1ccccc1CO2,120 °C
3,COC(=O)C(=CNc1cc(-c2ccccc2Cl)sc1C(=O)O)SC,80 to 85 °C
4,COc1cc(-c2ncc(Cl)cc2F)c(F)cc1Cl,120 to 122 °C
5,CC(=O)c1c(O)cccc1OCCCCCOc1ccc2cc(C(=O)O)ccc2c1,190 to 193 °C
6,C(=NNc1ccccc1)c1ccccn1,179 °C
7,Clc1nc(C(Cl)Cl)c(Cl)s1,42 to 44 °C
8,CSc1nnc(-c2ccc(-c3ccccc3)cc2)n1-c1ccccc1F,199 to 200 °C
9,CC(C)(C)CC(=O)N1CCC(c2ccc(COc3ccc(S(C)(=O)=O)cc3)nc2)CC1,140 to 142 °C
10,O=C(OC1CCC1)c1ccc(O)c(C(=O)O)c1,200 °C
11,Cc1c(NC(=O)c2ccc(-c3ccc(Cl)s3)cc2F)ccc2cc(CN3CCCC3)cnc12,160 to 162 °C
12,CCCNc1ccc(C#CCCN2CC=C(c3ccccc3)CC2)nc1,138 to 139 °C
13,CC(C)c1ccc2nc3ccc(C(=O)NCCCCc4cccnc4)cc3c(=O)n2c1,247 to 249 °C
14,CON1C(C)(C)CC(OC(=O)c2cc(C(C)(C)C)c(O)c(C(C)(C)C)c2)CC1(C)C,126 to 128 °C
15,O=c1cc(-c2cccs2)c2ccccc2[nH]1,262 to 264 °C
16,COC(=O)c1ccccc1S(=O)(=O)NC(=O)Nc1nc(OC)n(C)n1,177 to 180 °C
17,CN(c1ccc(S(C)(=O)=O)cc1)S(=O)(=O)c1cccc(NC(=O)c2ccc(Br)cc2)c1,216 to 218 °C
18,COC(=O)C(C)(C)c1ccc(C(=O)Nc2cn3cc(C)ccc3n2)cc1,228 to 230 °C
19,CCN1C(=O)CCCc2c1ccc(Nc1ncc(Cl)c(Nc3ccc(N4CCN(C)CC4)cc3OC)n1)c2OC,186 to 187 °C
20,C=CCn1c(NCCCOc2ccccc2)nc(N2CCc3ccccc3CC2)c(C#N)c1=O,157 to 159 °C
21,OCc1cccc(-c2coc(-c3cn([C@H]4CN5CCC4CC5)nn3)c2)c1,212 °C
22,O=C1c2ccccc2C(=O)N1CCCCSc1nccc(NC(=S)NCC(F)(F)F)n1,201 to 202 °C
23,CCCC/C=C\c1c([C@H](O)[C@H](CCCC)NC(=O)[C@H](CC(C)C)NC(=O)OCc2ccccc2)c1=O,87 to 94 °C
24,C[C@@H]1N=C(c2ccccc2F)c2c(ccc(N)c2Cl)N(C)C1=O,222 to 226 °C
25,Cn1nc(-c2ncc(Cl)cc2F)cc1OCC(F)(F)F,72 to 73 °C
